Results as given in patent EP0495091B1 (Metabasis Therapeutics Inc., priority 1990, dated 1992).

What was measured:
[1] = target: T1, calf intestinal musosa adenosine deaminase (Bos taurus, UniProt P56658); test: Adenosine deaminase activity inhibition; type: biochemical; conditions: 80 µM adenosine, pH 7.0, 10 minutes at 37°C
T1 construct: calf intestinal musosa adenosine deaminase; from tissue; host or cells: calf intestinal mucosa
T1 sequence (P56658 1-363): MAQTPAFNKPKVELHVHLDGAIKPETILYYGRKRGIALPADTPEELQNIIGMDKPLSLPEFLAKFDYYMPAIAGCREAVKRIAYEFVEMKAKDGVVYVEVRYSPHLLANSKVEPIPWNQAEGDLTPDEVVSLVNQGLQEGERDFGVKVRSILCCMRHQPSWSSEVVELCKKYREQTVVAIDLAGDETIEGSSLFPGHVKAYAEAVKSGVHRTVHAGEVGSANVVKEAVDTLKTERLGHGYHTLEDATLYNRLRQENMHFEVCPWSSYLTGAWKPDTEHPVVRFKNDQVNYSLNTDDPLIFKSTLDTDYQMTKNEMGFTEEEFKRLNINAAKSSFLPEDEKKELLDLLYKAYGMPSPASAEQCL
Protocol: Different concentrations of the test compounds were incubated in the assay mixture for 10 minutes at 37°C. The reaction was monitored continuously for oxidation of NADH from the change in absorbance at 340 nm.

[2] = cited from earlier work

| Structure (SMILES) | IC50 [1] [µM] | half life of adenosine in blood [2] [s] |
| --- | --- | --- |
| CO[C@@H]1[C@H](O)[C@@H](CO)O[C@H]1n1cnc(C(N)=O)c1N [Compound No. 20, 5-Amino-1-(2-O-methyl-β-D-ribofuranosyl)-imidazole-4-carboxamide] | 1400 |  |
| CCO[C@@H]1[C@H](O)[C@@H](CO)O[C@H]1n1cnc(C(N)=O)c1N [Compound No. 34, 5-amino-1-(2-O-ethyl-β-D-ribofuranosyl)-4-imidazole carboxamide] | 510 |  |
| Nc1ncnc2c1ncn2[C@@H]1O[C@H](CO)[C@@H](O)[C@H]1O [adenosine] |  | < 10 |
